In one data set the target is T1, full-length human cGAS (Homo sapiens, UniProt Q8N884).
T1 construct: The cGAS assay was used to screen 100,000 compounds with full-length human cGAS; 6xHis; made in house
The data set can be described thus: cGAS enzymatic assay (FP readout), inhibition of cGAS. Format: biochemical. On the procedure: Some exemplary compounds of the disclosure were tested for inhibition of cGAS (30 nM). The results are provided in Table 1 where “A” indicates an IC50 of less than 100 nM, “B” indicates an IC50 of greater than 100 nM and less than 500 nM, “C” indicates an IC50 of greater than 500 nM and less than 1 μM, “D” indicates an IC50 of greater than 1 μM and less than 10 μM, and “E” indicates an IC50 of greater than 10 μM.
A homogenous cGAS enzymatic assay was developed with fluorescence polarization (FP) and time-resolved Forster resonance energy transfer (TR-FRET) readouts (FIG. 2A-D). The cGAS assay was used to screen 100,000 compounds with full-length human cGAS (FIG. 2E), resulting in the identification of novel chemotypes, two of which are further developed in a structure-driven hit-to-lead study (Table 3, below). The assay performance was robust, as indicated by respective Z and Z′ values of 0.59 and 0.63 in the screen; compounds with polarization values greater than three SDs from the mean were considered hits; a scatterplot from 10 plates (3,200 compounds) is shown in FIG. 2D.
(§1) Potency and MOA studies, including Mn^2+ sensitivity, are performed using the cGAS enzymatic assay. Dose response experiments are used to determine IC50 values under basal conditions (5 mM MgCl2, 100 μM ATP/GTP), and with the addition of physiological levels of Mn (0.2 mM) using human and mouse cGAS. Ligand optimization is driven by potency with the human enzyme; potency with mouse cGAS informs selection of an appropriate disease model for efficacy studies. Competition with ATP and GTP is assessed by comparing basal IC50 values to those in the presence of saturating ATP or GTP, and subsequently confirmed by measuring velocity vs. substrate at varying ATP or GTP levels. Inhibitor residence times (1/koff) are used as a key parameter for prioritizing compounds and driving SAR, because a longer residence time often results from an allosteric mechanism, and can also correlate with improved cellular activity. The cGAS enzymatic assay is used with the jump dilution method to measure residence times (inhibitor dissociation rates), as described for kinases using the very similar ADP assay. Biophysical methods, including SPR and TSAn, are used as orthologous methods for residence time measurements and kd estimates.

A further data set addresses Mouse cGAS (Mus musculus, UniProt Q8C6L5). The data set can be described thus: cGAS enzymatic assay with mouse cGAS. It counts as biochemical. On the procedure: as §1
A short description of data set [1]: Solubility Ksol in PBS pH 7.4. It counts as physicochemical. The note with it: pH 7.4, aqueous buffer, kinetic from dmso stock.
Data set [2] in a line: Human microsomal stability (NADPH). To be noted: liver microsomes, read-out: Human MS Stability (NADPH) t1/2. It counts as in vitro ADME. On the procedure:
(§2) Compounds are tested in Caco-2 and MDR1-MDCK permeability assays to provide a measure of intestinal absorption, blood-brain-permeability and efflux by P-glycoprotein (P-gp), a frequent obstacle to effective CNS delivery. CNS drugs are associated with high passive membrane permeability (Papp>1×10^−6 cm/sec) and have low efflux ratios (Papp(B−A)/Papp(A−B)<2.5). Metabolic stability is tested using mouse and human liver microsomes incubated with NADPH for CYP-dependent metabolism and with UDPGA for glucuronidation. Compounds are tested for pharmacokinetics and brain penetration in mice using oral, intravenous and intraperitoneal administration.

A short description of data set [3]: Mouse microsomal stability (NADPH). Format: in vitro ADME. To be noted: liver microsomes, read-out: Mouse MS Stability (NADPH) t1/2. How it is done: as §2
Data set [4] concerns Madin-Darby Canine Kidney cells-Multi Drug Resistance pump. Briefly: MDCK-MDR permeability and efflux. Format: in vitro ADME. How it is done:
as §2

In the next data set the test system is P-glycoprotein (MDR1). The data set can be described thus: MDCK-MDR permeability and efflux. Format: in vitro ADME, Canine. To be noted: dog, MDCK-MDR1. On the procedure:
as §2

Data set [5] deals with kinases (Abl1, PKA, TBK1), GTPase (Rac1), phosphodiesterase (PDE4A), ENPP1. The data set can be described thus: Selectivity panel of nucleotide-utilizing enzymes. It counts as biochemical. On the procedure: The compounds of formula (I) of the disclosure were tested for improved potency and other drug-like properties.
A panel of nucleotide-utilizing enzymes that included kinases (Abl1, PKA, TBK1—which transduces cGAS/STING signals, see FIG. 4) a GTPase (Rac1), a phosphodiesterase (PDE4A), and ENPP1, a nucleotidase that degrades cGAMP, was used preliminarily. cGAS assays were used to perform dose response measurements with cGAS inhibitors. In addition to these enzymes, inhibitors are tested with three other members of the oligoadenylate synthases (OAS), nucleic acid sensors that activate innate immunity via production of short, 2′-5′ oligoadenylate second messengers. Methods for expression and purification of the human and/or porcine enzymes in E. coli or baculovirus-infected insect cells have been developed as well as a simple, absorbance-based assay using commercially available pyrophosphate kit. In addition, an FP-based assay (competitive displacement of a fluor-cGAMP tracer) is developed to test compounds as ligands for STING.

The test system of data set [6] is DNA-stimulated IFNβ expression. Briefly: IFNβ ELISA, DNA-stimulated IFNβ expression. Format: cell-based. On the procedure: (§3) FIG. 5A illustrates activity of IFNβ expression of compound 14 in three different experiments. FIG. 5B illustrates the ISG mRNA expression of compound 14 in THP1-dual cells. Compound 14 in concentration of 200 μM was evaluated after 24 hours.
(§4) Cellular activity of several compounds of formula (I) was assessed in […]. For example, FIG. 5A illustrates activity of IFNβ expression, and FIG. 5B illustrates the ISG mRNA expression of compound 14 in THP1-dual cells.

In data set [7] the test system is IRF3-driven transcription. The data set can be described thus: IRF3-Luc reporter, THP1 dual-cell reporter system. Format: cell-based. To be noted: Homo sapiens, THP-1; read-out: Cellular IRF3-Luc. The text has this: (§5) FIG. 4 includes a schematic showing the THP1 dual-cell reporter system: secreted luciferase reports on IRF3-driven transcription; secreted alkaline phosphatase reports on NFκB-driven transcription, both downstream of cGAS/STING.

The subject of data set [8] is NFκB-driven transcription. Briefly: NFκB-SEAP reporter, THP1 dual-cell reporter system. It counts as cell-based. To be noted: Homo sapiens, THP-1; read-out: Cellular NFκB-SEAP.
Source text: as §5

Another data set concerns ISG mRNA expression. Briefly: ISG mRNA expression in THP1-dual cells. It counts as cell-based. How it is done: as §3, §4
A further data set concerns the target cGAS (Homo sapiens, UniProt Q8N884). Briefly: SPR binding to cGAS. To be noted: enzymatic analysis and biophysical binding studies (SPR, TSA). The text has this:
Following confirmation of hits at three concentrations and removal of compounds with visually evident reactivity or metabolic liabilities, non-stoichiometric inhibitors, aggregators, DNA intercalators and redox-active compounds were triaged using established assays. Initial SAR based on more than 100 commercially available analogs provided additional confidence that the compounds of the disclosure were bonafide inhibitors, and informed potential scaffold hops and toleration for modifications. The compounds of formula (I) of the disclosure were selected for advancement into a hit-to-lead study. […] The compounds of formula (I) of the disclosure are competitive with GTP and its potency is enhanced in the presence of Mn^2+.
Potency and MOA studies, including Mn^2+ sensitivity, are performed using the cGAS enzymatic assay. Dose response experiments are used to determine IC50 values under basal conditions (5 mM MgCl2, 100 μM ATP/GTP), and with the addition of physiological levels of Mn (0.2 mM) using human and mouse cGAS. Ligand optimization is driven by potency with the human enzyme; potency with mouse cGAS informs selection of an appropriate disease model for efficacy studies. Competition with ATP and GTP is assessed by comparing basal IC50 values to those in the presence of saturating ATP or GTP, and subsequently confirmed by measuring velocity vs. substrate at varying ATP or GTP levels. […]

SMILES strings stand for the structures. In brackets after ≈: the same amount, converted by molar mass. Where two headings read alike, the source gives them in different places.

T1 sequence (Q8N884 whole entry): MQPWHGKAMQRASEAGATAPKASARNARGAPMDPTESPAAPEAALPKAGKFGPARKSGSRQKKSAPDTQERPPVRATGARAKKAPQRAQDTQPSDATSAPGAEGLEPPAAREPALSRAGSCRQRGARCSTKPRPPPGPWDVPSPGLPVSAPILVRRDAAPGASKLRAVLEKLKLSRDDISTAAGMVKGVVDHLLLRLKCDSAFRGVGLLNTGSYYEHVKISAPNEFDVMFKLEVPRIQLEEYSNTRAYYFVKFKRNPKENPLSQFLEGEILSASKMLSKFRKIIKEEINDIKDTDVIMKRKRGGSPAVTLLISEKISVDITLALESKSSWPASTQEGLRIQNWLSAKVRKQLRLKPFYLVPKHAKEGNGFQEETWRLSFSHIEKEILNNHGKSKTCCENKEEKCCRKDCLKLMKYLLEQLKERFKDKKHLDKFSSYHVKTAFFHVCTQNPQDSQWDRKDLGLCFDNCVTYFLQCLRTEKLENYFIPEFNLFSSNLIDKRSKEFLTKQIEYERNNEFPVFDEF
Chain of Mouse cGAS (Q8C6L5 whole entry): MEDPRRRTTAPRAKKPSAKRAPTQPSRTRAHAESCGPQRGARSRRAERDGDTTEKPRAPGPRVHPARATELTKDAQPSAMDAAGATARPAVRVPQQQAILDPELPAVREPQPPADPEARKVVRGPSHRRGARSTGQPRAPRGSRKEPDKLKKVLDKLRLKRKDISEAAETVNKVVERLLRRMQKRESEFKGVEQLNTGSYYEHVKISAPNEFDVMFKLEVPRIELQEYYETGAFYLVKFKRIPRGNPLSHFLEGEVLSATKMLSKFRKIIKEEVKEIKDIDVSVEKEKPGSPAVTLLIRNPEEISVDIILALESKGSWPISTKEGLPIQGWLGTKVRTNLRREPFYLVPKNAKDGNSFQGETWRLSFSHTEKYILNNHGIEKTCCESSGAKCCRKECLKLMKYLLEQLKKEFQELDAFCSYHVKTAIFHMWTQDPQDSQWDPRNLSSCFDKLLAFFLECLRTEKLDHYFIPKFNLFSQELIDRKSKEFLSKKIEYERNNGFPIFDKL
Chain of cGAS (Q8N884 whole entry): as the sequence (Q8N884 whole entry) above

One may read the solubility as how much of the substance goes into solution per volume. A high value points to a readily soluble substance. A word on the efflux ratio: it is the permeability from basolateral to apical divided by that in the opposite direction, in the common usage. A word on the Papp A→B: it is the apparent permeability from the apical to the basolateral side of a cell layer. For `COc1cc2c(-n3ccnc3)ccnc2cc1Cl` [Compound 14, 7-chloro-4-(1H-imidazol-1-yl)-6-methoxyquinoline], the IC50 on full-length human cGAS (100 μM ATP/GTP, read-out: Enzymatic FP Std (100 μM ATP/GTP)) is 391 nM; at full-length human cGAS (1 mM ATP/GTP, read-out: Enzymatic FP Physiological (1 mM ATP/GTP)), 1920 nM; at full-length human cGAS (5 mM Mg2+, 0.2 mM Mn2+, read-out: IC50 (5 mM Mg^2+, 0.2 mM Mn^2+)), 48 ± 2 nM; on full-length human cGAS (5 mM Mg2+, no Mn2+, read-out: IC50 (5 mM Mg^2+)), 550 ± 10 nM; on full-length human cGAS (cGAS (30 nM), no Mn2+, read-out: Inhibition cGAS (IC50 class)), 500 to 1000 nM; on full-length human cGAS (cGAS (30 nM), with Mn2+, read-out: Inhibition cGAS + Mn^2+ (IC50 class)), below 100 nM. Further, the IC50 against Mouse cGAS stood at 93 nM; in data set [6] (read-out: Cellular IFNβ ELISA), 68000 nM; in [7], 75000 nM; in data set [8], 59000 nM. In addition, the MOA result on full-length human cGAS (competition with substrates) is given as “GTP Competitive”. The same compound showed a solubility in [1] of 224 µM (≈ 58.2 µg/mL). Besides, the half-life in data set [2] was found to be 1.93 h; in data set [3] it was 0.355 h. For the same compound, the MDR-1-mediated export result in data set [4] is listed as “no indication of MDR-1-mediated export”. The efflux ratio with P-glycoprotein (MDR1) is 0.5. Besides, in the data set with P-glycoprotein (MDR1) (A→B), the Papp A→B was 76.7 ×10⁻⁶ cm/s. Also, in data set [5], the “Off-Target Activity (Kinase, PDE, GTPase, ENPP1)” value is “None”. Moreover, in data set [5] (at 200 μM, kinases, a GTPase, a phosphodiesterase, a nucleotidase), the “Inhibitory activity with panel of nucleotide-utilizing enzymes” value is listed as “lack of inhibitory activity”. Moreover, the “DNA-stimulated IFNβ expression as measured by ELISA” value in data set [6] is given as “specific inhibition”. Also, in the data set with ISG mRNA expression, the “ISG expression” value is “inhibition”. In addition, the “ISG expression (fold decrease @ 200 μM)” value in the data set on ISG mRNA expression (200 μM, THP1-dual cells, 24 hours) is reported as 2-10×. The “Binding stoichiometry to cGAS” value on cGAS was “Stoichiometric binding (1:1)”.

The values are drawn from patent US20220073470A1, “INHIBITORS OF CGAS ACTIVITY AS THERAPEUTIC AGENTS” (BELLBROOK LABS, LLC, priority 2019, published 2022).
